Experimental data published in ChEMBL document CHEMBL1129670, “Synthesis and structure-activity relationships of N-propyl-N-(4-pyridinyl)-1H-indol-1-amine (besipirdine) and related analogs as potential therapeutic agents for Alzheimer's disease” (J Med Chem, 1996).
pIC50: −log10 of the molar value.

Assays:
[1] = target: Muscarinic acetylcholine receptor; type: cell membranes, Membrane
Description: Inhibition of [3H]quinuclidinyl benzilate (QNB) binding from rat forebrain membranes in the absence of Zn

[2] = target: Muscarinic acetylcholine receptor; type: cell membranes, Membrane; remark: listed apart in the source
Description: Inhibition of [3H]quinuclidinyl benzilate (QNB) binding from rat forebrain membranes in the presence of Zn

Acetylcholinesterase = target: T1, Acetylcholinesterase (Rattus norvegicus, UniProt P37136)
T1 sequence (P37136 whole entry): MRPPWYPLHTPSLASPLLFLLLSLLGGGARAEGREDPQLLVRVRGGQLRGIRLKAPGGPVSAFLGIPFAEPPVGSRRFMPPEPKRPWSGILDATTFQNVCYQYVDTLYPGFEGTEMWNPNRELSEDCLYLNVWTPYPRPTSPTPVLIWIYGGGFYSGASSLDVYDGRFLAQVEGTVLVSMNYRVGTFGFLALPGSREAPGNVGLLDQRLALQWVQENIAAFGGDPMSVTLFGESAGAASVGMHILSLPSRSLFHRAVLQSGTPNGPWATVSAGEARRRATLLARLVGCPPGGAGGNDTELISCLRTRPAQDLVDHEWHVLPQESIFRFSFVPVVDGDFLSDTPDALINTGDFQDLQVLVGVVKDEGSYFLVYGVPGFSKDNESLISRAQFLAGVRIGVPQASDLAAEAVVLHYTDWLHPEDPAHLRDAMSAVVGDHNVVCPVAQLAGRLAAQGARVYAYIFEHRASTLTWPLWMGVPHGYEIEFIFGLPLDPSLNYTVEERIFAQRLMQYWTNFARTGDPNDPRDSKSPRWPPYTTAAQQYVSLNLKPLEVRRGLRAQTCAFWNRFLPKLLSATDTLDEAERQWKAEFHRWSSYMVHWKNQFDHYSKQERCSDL
Description: Inhibitory activity against acetylcholinesterase in rat striatal preparation

[3] = target: Sodium-dependent noradrenaline transporter (Homo sapiens, UniProt P23975)
Sequence of Sodium-dependent noradrenaline transporter (P23975 whole entry): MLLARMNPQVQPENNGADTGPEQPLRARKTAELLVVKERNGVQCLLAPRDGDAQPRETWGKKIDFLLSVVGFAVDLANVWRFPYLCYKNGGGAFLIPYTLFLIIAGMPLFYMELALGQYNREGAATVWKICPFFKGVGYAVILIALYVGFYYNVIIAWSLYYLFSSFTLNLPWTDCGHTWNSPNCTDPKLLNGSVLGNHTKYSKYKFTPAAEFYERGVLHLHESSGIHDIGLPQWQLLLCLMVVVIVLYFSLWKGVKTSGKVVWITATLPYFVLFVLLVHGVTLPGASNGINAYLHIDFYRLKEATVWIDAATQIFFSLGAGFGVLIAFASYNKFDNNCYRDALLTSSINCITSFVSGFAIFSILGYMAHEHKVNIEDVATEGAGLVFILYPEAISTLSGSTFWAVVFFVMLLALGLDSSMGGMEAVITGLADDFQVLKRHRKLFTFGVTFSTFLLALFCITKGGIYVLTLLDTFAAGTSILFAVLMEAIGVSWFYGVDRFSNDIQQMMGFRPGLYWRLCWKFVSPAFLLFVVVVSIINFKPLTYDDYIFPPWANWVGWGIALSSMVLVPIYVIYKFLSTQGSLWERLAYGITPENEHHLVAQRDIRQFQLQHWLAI
Description: Inhibitory activity against norepinephrine (NE) uptake in rat whole brain synaptosome preparation

Mus musculus [4] = species on record: Mus musculus; assay: animal or person
Description: Effective dose against administration in mice

Mus musculus [5] = species on record: Mus musculus
Mus musculus [6] = species on record: Mus musculus; assay: Antagonistic activity against Scopolamine induced behavioral deficits in mice; 1/6; type: functional
Mus musculus [7] = assay: Antagonistic activity against Scopolamine induced behavioral deficits in mice at dose 5.0 mg/kg sc; type: functional; conditions: route subcutaneous
[8] = target: T2, Adrenergic receptor alpha-2 (Rattus norvegicus, UniProt P22086+P19328+P22909); assay: Inhibitory activity against [3H]clonidine binding to Alpha-2 adrenergic receptor in rat cortex
T2 sequence (P22086 whole entry): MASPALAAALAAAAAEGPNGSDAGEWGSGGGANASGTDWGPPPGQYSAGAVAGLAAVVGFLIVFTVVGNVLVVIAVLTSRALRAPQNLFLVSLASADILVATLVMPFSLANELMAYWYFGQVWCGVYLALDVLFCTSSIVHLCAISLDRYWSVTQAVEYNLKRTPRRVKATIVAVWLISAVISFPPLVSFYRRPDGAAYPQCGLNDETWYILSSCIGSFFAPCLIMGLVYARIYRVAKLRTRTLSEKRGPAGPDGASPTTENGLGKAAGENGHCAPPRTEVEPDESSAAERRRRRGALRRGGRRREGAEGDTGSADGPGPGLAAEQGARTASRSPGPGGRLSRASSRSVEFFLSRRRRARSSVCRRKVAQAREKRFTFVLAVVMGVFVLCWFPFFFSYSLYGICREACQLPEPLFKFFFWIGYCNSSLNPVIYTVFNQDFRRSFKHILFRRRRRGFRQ
T2 sequence (P19328 whole entry): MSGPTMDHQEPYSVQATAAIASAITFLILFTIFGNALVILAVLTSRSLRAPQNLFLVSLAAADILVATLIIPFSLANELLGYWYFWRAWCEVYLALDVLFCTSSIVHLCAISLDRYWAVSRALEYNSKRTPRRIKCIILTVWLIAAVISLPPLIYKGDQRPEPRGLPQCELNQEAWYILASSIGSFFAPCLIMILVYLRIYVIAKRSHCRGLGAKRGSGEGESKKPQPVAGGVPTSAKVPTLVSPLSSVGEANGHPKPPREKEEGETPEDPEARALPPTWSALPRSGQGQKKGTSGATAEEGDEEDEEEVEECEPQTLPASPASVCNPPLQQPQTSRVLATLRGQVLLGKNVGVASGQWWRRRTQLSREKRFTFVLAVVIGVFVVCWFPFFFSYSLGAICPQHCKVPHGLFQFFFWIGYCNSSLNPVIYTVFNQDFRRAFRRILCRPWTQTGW
T2 sequence (P22909 whole entry): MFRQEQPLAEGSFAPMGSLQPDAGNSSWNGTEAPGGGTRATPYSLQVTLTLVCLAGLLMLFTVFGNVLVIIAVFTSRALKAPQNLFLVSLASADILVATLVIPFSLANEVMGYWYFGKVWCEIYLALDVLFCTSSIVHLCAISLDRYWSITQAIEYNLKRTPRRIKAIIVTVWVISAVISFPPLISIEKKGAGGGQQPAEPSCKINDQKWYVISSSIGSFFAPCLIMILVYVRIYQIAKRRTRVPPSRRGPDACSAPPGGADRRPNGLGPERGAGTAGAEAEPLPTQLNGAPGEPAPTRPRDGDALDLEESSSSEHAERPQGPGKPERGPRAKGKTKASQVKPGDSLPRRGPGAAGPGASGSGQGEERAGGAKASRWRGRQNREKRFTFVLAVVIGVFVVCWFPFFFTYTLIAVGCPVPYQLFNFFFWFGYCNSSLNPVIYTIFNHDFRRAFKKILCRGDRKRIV

Mus musculus [9] = species on record: Mus musculus; assay: Antagonistic activity against Scopolamine induced behavioral deficits in mice; 3/9; type: functional
Mus musculus [10] = assay: Antagonistic activity against Scopolamine induced behavioral deficits in mice at dose 0.02 mg/kg sc; type: functional; conditions: route subcutaneous
Mus musculus [11] = species on record: Mus musculus; conditions: dose 2.5 mg/kg; route subcutaneous
Description: Antagonistic activity against Scopolamine induced behavioral deficits in mice at dose 2.5 mg/kg sc

Mus musculus [12] = species on record: Mus musculus; conditions: dose 5 mg/kg; route subcutaneous
Mus musculus [13] = assay: Antagonistic activity against Scopolamine induced behavioral deficits in mice at dose […] sc; type: functional; conditions: route subcutaneous
Mus musculus [14] = assay: Antagonistic activity against Scopolamine induced behavioral deficits in mice at dose 1.25 mg/kg sc; type: functional; conditions: route subcutaneous
[15] = target: T3, Adrenergic receptor alpha-1 (Rattus norvegicus, UniProt P15823+P23944+P43140); assay: Inhibitory activity against [3H]WB-4101 binding to Alpha-1 adrenergic receptor in rat whole brain membrane; type: cell membranes
T3 sequence (P15823 whole entry): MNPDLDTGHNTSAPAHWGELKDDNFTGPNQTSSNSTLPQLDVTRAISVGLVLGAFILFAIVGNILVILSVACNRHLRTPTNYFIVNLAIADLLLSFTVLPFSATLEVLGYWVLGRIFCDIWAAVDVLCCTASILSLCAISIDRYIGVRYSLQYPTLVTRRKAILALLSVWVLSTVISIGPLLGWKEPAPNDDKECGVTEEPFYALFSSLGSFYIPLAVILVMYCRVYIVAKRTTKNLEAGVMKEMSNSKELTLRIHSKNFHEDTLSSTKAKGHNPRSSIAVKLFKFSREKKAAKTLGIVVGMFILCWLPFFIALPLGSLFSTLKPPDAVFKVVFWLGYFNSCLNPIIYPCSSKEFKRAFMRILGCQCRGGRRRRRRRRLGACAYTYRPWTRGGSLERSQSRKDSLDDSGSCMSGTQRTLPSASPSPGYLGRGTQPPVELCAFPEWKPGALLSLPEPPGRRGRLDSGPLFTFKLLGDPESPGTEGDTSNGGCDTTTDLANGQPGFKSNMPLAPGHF
T3 sequence (P23944 whole entry): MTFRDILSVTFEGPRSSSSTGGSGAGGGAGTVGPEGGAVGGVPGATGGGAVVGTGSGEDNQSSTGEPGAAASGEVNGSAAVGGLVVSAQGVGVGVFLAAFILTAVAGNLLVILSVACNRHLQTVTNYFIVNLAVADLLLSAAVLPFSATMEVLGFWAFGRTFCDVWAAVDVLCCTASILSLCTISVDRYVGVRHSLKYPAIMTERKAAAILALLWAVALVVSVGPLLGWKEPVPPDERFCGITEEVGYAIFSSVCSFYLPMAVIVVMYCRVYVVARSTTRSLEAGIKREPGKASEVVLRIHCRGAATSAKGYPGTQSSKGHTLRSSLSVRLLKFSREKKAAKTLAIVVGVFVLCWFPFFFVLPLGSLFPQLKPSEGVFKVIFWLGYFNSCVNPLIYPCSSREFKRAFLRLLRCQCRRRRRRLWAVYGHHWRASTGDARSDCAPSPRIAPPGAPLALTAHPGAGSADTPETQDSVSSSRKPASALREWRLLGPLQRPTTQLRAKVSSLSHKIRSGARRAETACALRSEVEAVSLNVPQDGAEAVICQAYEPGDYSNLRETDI
T3 sequence (P43140 whole entry): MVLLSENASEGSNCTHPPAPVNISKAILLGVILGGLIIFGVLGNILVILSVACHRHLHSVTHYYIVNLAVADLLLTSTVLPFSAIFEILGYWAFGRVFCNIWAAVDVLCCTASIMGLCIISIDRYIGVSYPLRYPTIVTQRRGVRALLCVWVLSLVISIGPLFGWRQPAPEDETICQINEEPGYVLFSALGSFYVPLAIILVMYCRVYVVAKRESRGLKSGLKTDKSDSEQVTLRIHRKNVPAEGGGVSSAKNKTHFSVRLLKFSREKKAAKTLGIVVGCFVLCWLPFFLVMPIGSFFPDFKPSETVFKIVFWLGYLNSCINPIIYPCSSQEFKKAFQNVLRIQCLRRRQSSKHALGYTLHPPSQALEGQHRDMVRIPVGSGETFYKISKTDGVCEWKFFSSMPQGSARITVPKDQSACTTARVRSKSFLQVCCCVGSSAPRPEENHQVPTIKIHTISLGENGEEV

Mus musculus [16] = species on record: Mus musculus; conditions: dose 0.63 mg/kg; route subcutaneous
Description: Antagonistic activity against Scopolamine induced behavioral deficits in mice at dose 0.63 mg/kg sc

Compound | IC50 [1] [µM] | IC50 [2] [µM] | pIC50 (Acetylcholinesterase) | pIC50 [3] | ED50 (Mus musculus [4]) [mg/kg] | also measured
O=[N+]([O-])c1ccc2c(ccn2Nc2ccncc2)c1 | 146 | 12 | < 4.00 | 5.00 | > 20 | 
C=CCN(c1ccncc1)n1ccc2ccccc21 | 7.3 | 1 | < 4.00 | 5.21 | 4.2 | Antagonism (Mus musculus [5]): 0
CCCN(c1ccncc1)n1cccn1.O=C(O)/C=C/C(=O)O | 127 | 31 | < 4.00 | < 4.70 | > 20 | 
c1ccc2nn(Nc3ccncc3)cc2c1 | 409 | 128 | < 4.00 | < 4.70 | > 20 | 
O=C(O)/C=C/C(=O)O.c1ccc2c(c1)cnn2Nc1ccncc1 | 128 | 29 | < 4.00 | 4.77 | 3.8 | Antagonism (Mus musculus [5]): 0
CCCN(c1ccncn1)n1ccc2ccccc21 | 391 | 11 | < 4.00 | 5.85 | > 20 | Antagonism (Mus musculus [6]): 1; Response (Mus musculus [7]): 23%
Brc1ccc2c(ccn2Nc2ccncc2)c1 | 44 | 7.5 | < 4.00 | < 4.70 | > 20 | 
CCCN(c1ccncc1)n1c(C)cc2ccccc21 | 7.2 | 1.4 | < 4.00 | 5.96 | 3.2 | IC50 [8]: 2.3 µM; Antagonism (Mus musculus [9]): 3; Response (Mus musculus [10]): 20%; Response (Mus musculus [11]): 20%; Response (Mus musculus [12]): 23%
CCCN(c1ccncc1)n1cc2ccccc2n1 | 91 | 15 | < 4.00 | 5.33 | > 20 | 
COc1ccc2c(ccn2Nc2ccncc2)c1 | 44 | 7.5 | < 4.00 | < 4.70 | > 20 | 
CCCN(c1ccncc1)n1cc(C=O)c2ccccc21 | 3.3 | 1.8 | 4.70 | 5.66 | 18 | Antagonism (Mus musculus [5]): 0
Clc1cccc(Cl)c1NC1=NCCN1 [CLONIDINE] |  |  |  | < 4.70 | 0.36 | Antagonism (Mus musculus [5]): 0
Cc1cn(Nc2ccncc2)c2ccccc12 | 82 | 35 | < 4.00 | 4.89 | 1 | Antagonism (Mus musculus [6]): 1; Response (Mus musculus [13]): 33%
O=C1CCCN1CC#CCN1CCCC1 [OXOTREMORINE] | 2.7 | 0.66 |  |  |  | 
O=C(O)/C=C/C(=O)O.c1ccc2c(c1)c1ccccc1n2Nc1ccncc1 | 20 | 8.2 | < 4.00 | 5.85 | 2.3 | Antagonism (Mus musculus [5]): 0
O=C(O)/C=C/C(=O)O.c1cnn(Nc2ccncc2)c1 | > 1000 | 247 | < 4.00 | < 4.70 | > 20 | 
COC(=O)[C@@H]1[C@H]2C[C@H]3c4[nH]c5ccccc5c4CCN3C[C@@H]2CC[C@@H]1O [YOHIMBINE] |  |  |  |  | > 8 | 
CCCN(c1ccncc1)n1ccc2cc(Cl)ccc21 | 5.8 | 2.4 | < 4.00 | 5.72 | > 20 | Antagonism (Mus musculus [6]): 1; Response (Mus musculus [14]): 20%
CCN(c1ccncc1)n1ccc2ccccc21 | 10 | 2.4 | < 4.00 | 6.60 | 3.3 | IC50 [15]: 3.3 µM; IC50 [8]: 0.11 µM; Antagonism (Mus musculus [6]): 1; Response (Mus musculus [16]): 33%
